Experiments:
[1] = test system: yeasts expressing human Patched protein; assay: Resistance of yeasts to doxorubicin (growth, OD at 600 nm over time); type: cell-based, S. cerevisiae; conditions: 10 μg/mL doxorubicin in rich medium, 18° C.; yeasts expressing human Patched protein vs K699 control yeasts
Protocol: Yeasts not expressing human Patched protein (controls) K699 and yeasts expressing human Patched protein were cultured at 18° C. in normal rich medium and in rich medium with 10 μg of added doxorubicin per mL of medium.
The OD of the yeasts at 600 nm is measured over time.

[2] = molecular target: T1, human Patched protein (Homo sapiens, UniProt Q13635); assay: Binding of doxorubicin to Patched protein (quenching of doxorubicin fluorescence on yeast membrane preparations); conditions: 50 nM doxorubicin added to 30 μg of membranes; Patched-containing vs K699 control membranes
T1 sequence (Q13635 1-1447): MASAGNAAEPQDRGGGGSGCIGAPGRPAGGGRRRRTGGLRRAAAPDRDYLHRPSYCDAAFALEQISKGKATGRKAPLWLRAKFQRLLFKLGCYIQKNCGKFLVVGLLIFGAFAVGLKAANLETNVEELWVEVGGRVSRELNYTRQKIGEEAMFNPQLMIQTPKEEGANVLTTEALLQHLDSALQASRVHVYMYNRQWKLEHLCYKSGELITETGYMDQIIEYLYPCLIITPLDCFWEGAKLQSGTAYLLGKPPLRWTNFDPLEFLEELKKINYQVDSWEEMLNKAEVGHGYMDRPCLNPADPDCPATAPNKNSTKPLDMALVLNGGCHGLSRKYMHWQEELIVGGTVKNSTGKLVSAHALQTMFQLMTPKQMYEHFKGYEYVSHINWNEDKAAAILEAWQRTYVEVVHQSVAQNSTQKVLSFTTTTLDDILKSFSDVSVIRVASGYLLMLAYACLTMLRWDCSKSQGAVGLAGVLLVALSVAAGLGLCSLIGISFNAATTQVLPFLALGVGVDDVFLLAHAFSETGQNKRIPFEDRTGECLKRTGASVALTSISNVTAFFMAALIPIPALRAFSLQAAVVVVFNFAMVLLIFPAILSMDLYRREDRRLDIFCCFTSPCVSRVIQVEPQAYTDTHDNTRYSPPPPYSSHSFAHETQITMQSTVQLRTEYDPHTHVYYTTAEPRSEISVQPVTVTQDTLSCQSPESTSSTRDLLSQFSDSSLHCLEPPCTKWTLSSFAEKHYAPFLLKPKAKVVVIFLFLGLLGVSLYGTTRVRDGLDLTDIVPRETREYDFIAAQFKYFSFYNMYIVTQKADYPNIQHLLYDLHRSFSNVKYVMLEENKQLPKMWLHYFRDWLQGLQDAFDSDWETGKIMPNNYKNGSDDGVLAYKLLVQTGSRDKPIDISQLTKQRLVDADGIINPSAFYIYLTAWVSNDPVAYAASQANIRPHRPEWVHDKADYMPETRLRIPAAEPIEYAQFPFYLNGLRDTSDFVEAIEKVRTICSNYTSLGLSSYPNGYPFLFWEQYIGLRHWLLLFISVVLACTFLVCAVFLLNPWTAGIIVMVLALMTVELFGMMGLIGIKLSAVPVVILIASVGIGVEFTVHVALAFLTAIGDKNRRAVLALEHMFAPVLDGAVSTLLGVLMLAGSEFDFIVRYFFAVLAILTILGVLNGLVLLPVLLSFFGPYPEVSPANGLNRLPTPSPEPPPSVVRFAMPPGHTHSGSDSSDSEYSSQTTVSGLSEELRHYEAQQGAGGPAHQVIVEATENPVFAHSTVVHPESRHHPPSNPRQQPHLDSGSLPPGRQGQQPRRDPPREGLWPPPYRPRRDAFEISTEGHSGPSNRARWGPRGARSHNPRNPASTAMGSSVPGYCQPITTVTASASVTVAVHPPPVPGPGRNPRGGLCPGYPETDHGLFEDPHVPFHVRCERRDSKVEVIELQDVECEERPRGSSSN
Protocol: 50 nM of doxorubicin are added to 30 μg of membranes and the doxorubicin fluorescence is measured as a function of time.

[3] = molecular target: T1, human Patched protein; assay: Measurement of the efflux of doxorubicin on yeasts; type: cell-based; set-up: expressed in transfected cells; host or cells: Xenopus laevis oocytes (RNA injection); conditions: yeasts loaded 2 hours with 10 μM doxorubicin, supernatant after 20 mins; Patched-expressing vs K699 control
Protocol: After a centrifugation (5 mins at 6800 g) to remove all cell fragments, the reading of the doxorubicin fluorescence (λex=490+/−10 nm, λem=610+/−10 nm) was carried out on 200 μL of supernatant in a plate reader (FLUOstar, Labtech). • on yeasts: K699 control yeasts and yeasts expressing human Patched protein were cultured at 18° C. up to an OD600 of 7 on a rich medium with 2% of added D-glucose.
The cells are then centrifuged, (5 mins. 3000 g), washed 4 times with water and finally resuspended carefully to an OD600 of 10 in 50 mM NaOH-Hepes buffer (pH 7.0) and incubated for 2 hours with 10 μM of doxorubicin.
After rinsing, the yeasts are resuspended in 50 mM NaOH-Hepes buffer (pH 7.0).
After 20 mins, the yeasts are centrifuged and doxorubicin contained in the supernatant is measured by fluorescence (λex=490+/−10 nm, λem=610+/−10 nm). • On xenopus oocytes: obtaining and preparing the oocytes

[4] = molecular target: T1, human Patched protein; assay: Measurement of the efflux of doxorubicin on xenopus oocytes; type: cell-based; set-up: expressed in transfected cells; host or cells: Xenopus laevis oocytes (RNA injection); conditions: oocytes injected with 10 or 20 ng RNA encoding human Patched protein vs non-injected; 100 μM doxorubicin 16 hrs, supernatant after 90 mins
Protocol: The oocytes are collected by surgery on an Xenopus laevis female anaesthetized with 0.2% of MS222 (tricaine methanesulfonate) in accordance with the procedures recommended by the ethics committee. The oocytes are washed with an MBS saline solution, pH 7.4 (NaCl 85 mM, KCl 1 mM, NaHCO32,4 mM, MgSO40.82 mM, Ca(NO3)20.33 mM, CaCl2 0.41 mM, HEPES 10 mM, NaOH 4.5 mM) supplemented with 50 U/ml of penicillin and 50 μg/ml of streptomycin. The oocytes are then defolliculated by incubation for 16 hrs at 19° C. with 1.8 mg/ml of collagenase then 30 mins with MBS without calcium, and placed in MBS. 50 nL containing 10 or 20 ng of RNA encoding human Patched protein are injected per oocyte. The oocytes are incubated for 3 days at 19° C. in MBS. 4 lots of 10 control oocytes (not injected) and oocytes injected with RNA encoding human Patched protein were incubated for 16 hrs at 19° C. with 100 μM of doxorubicin. After rinsing, the oocytes are placed in MBS. The supernatant is sampled after 90 mins and the doxorubicin fluorescence present in the sample is measured by fluorescence (λex=490+/−10 nm, λem=610+/−10 nm).
The experiments being carried out on 4 lots of 10 control oocytes (non-injected) and oocytes injected with RNAs encoding human Patched protein, the average of the values obtained for the 4 lots is shown.

SMILES: COc1cccc2c1C(=O)c1c(O)c3c(c(O)c1C2=O)C[C@@](O)(C(=O)CO)C[C@@H]3O[C@H]1C[C@H](N)[C@H](O)[C@H](C)O1 [doxorubicin]
- resistance of yeasts to doxorubicin [1]: yeasts expressing human Patched protein resist better than the control yeasts
- quenching of doxorubicin fluorescence (binding to Patched protein) [2]: rapid and significant quenching of the doxorubicin fluorescence
- efflux of doxorubicin (fluorescence of supernatant) [3]: increase in the efflux of doxorubicin
- efflux of doxorubicin (fluorescence of supernatant) [4]: increase in the efflux of doxorubicin
